The source of these data is a melting point compilation (Tetko et al.; mined from patent text by program, amines drawn as free bases though some values may be those of a salt).

Structures are written as SMILES.

In turn, `CN1CCC(c2c[nH]c3ccc(-n4ccnn4)cc23)CC1` displayed a melting point of 251 to 254 °C. Next, `C=Cc1c(N)nc(-c2ccc(Cl)c(F)c2F)nc1C(=O)OC`: 130 to 132 °C; `CCn1c(CC(=O)O)ccc1C(=O)c1ccc(Cl)cc1`: 149 to 153 °C; `CC#CCOc1cc(/C=C/C(=O)Nc2ccccc2C(=O)O)ccc1OC`: 170 to 171 °C.

On to `COC(=O)c1ccc(C(=O)Nc2cc3c4c(c2)CCCC4(C)CCC3)cc1`, for which the melting point lay within 217 to 218 °C. The same measure for `CN1CCN(C(=O)Nc2c(C(=O)c3ccccc3)[nH]c3cc(Cl)ccc23)CC1`: 168 to 170 °C.

`Cc1c[nH]c2c1C(=O)CC(c1ccccc1Cl)C2` (centres undefined) yielded a melting point of 201 to 209 °C. The same measure for `Cc1cc(Br)ccc1NC(=O)CC(=O)Sc1ccccc1`: 133 to 135 °C; for `COc1ccccc1C(=O)CN1CCC(=O)C(C(c2ccc(F)cc2)c2ccc(F)cc2)C1` (centres undefined): 148 to 149 °C. The same measure for `CN(C)c1ccc(-c2cccc3c2C2(COc4cc5c(cc42)OCO5)C(=O)N3)cn1` (centres undefined): over 245 °C; for `Cc1cc([N+](=O)[O-])c(CC2NC(=O)NC2=O)cc1Cl` (centres undefined): 211 to 214 °C; for `Oc1cc(O)c(-c2nc(-c3ccccc3)nc(-c3ccccc3)n2)cc1Cl`: 255 to 265 °C. The same measure for `CNc1nc(N)c(SC)c(Cl)n1`: 205 °C; for `O=c1[nH]cnc2c1cnn2-c1ncc(C(F)(F)F)cc1Cl`: 331 °C; for `COC(=O)Cn1c(Cl)c(Cl)c(Cl)c1Cl`: 115 °C. `Cc1ccc(N2CC(=O)N(c3ccc(S(N)(=O)=O)cc3Cl)C2)cc1` showed a melting point of 223 to 226 °C.

Regarding `COc1ccc(-c2ccc3cnc(Nc4ccc(N5CCN(C)CC5)cc4OC)nn23)cn1`, the melting point lay within 170 to 173 °C.

Consider `CS(=O)(=O)c1ccc(-c2cc(F)c(F)cc2-c2ccc(F)c(Cl)c2)cc1`, for which the melting point came to 172 °C.

With `CNc1cc(F)ccc1C(=O)O`, the melting point lay within 180 to 181 °C. The same measure for `CCOC(=O)C1=C(C)NC(c2ncc[nH]2)=NC1c1ccc(F)cc1Cl` (centres undefined): 157 to 162 °C; for `CCOC(=O)CCNCC(O)COc1cccc(C#N)c1` (centres undefined): 95 °C; for `CC1=C(C(=O)c2ccc(C(F)(F)F)cc2)C(=O)C2C=CC=CC2C1=O` (centres undefined): 155 to 156 °C. Next, `COc1ccccc1-c1ncsc1C(=O)O`: 170 to 172 °C; `N#CCCNC(=O)c1cccc(-c2ccc3ccn(Cc4ccc(Cl)cc4Cl)c3n2)c1`: 186 to 187 °C; `CC(C)(C)C(=O)Nc1ccc(F)c(Oc2ccc(C3CC(=O)NC(=O)C3)cc2)c1F`: 172 °C. The compound `c1ccn(Nc2ncnc3c2ncn3-n2cccc2)c1` yielded a melting point of 230 to 232 °C.

For the compound `CCCCNC(=O)S(=O)(=O)Nc1sc(CC(C)C)cc1-c1ccc(Cn2c(-c3ccccc3)nc(OC)c2C=O)cc1`, the melting point lay in the range of 131 to 133 °C. Take `N#Cc1cnnc2ccccc12`: the melting point came to 140 °C.

`CS(=O)(=O)c1ccc(Oc2ccc([N+](=O)[O-])cc2[N+](=O)[O-])cc1` registered a melting point of 176 to 177 °C. In turn, `C=CCCOc1ccc(CCCOC(=O)NS(=O)(=O)NCCOC(C)C)c(Oc2ncc(C(F)(F)F)cc2Cl)c1` came in with a melting point of 111 to 113 °C.

`CCCCCCS(=O)c1c(O)cc(C)oc1=O` (centres undefined) had a melting point of 59 to 60 °C.

`COc1ccc(-n2c3c(c(=O)c4cccnc42)CC(C)O3)cc1` (centres undefined) gave a melting point of 194 to 196 °C. Next, `CN(Cc1cc2c3c(c1)c(=O)c(C(=O)NCc1ccc(Cl)cc1)cn3CC(=O)N2C)C[C@@H](O)c1cnccn1`: 97 to 98 °C; `CNC(=O)c1ccc(C=CC(=O)NCC(=O)N(C)c2ccc(C)c(CO)c2C)cc1`: 261 to 263 °C; `NC(=O)N1CCCC2=C1CCc1cc(Cl)ccc12`: 169 to 171 °C. The same measure for `Cc1csc(C)c1S(N)(=O)=O`: 135 °C; for `O=Cc1cc(Oc2c(Cl)cc(C(F)(F)F)cc2Cl)ccc1[N+](=O)[O-]`: 115 °C. Next, `COCCNc1nccc(Oc2ccc(NC(=O)c3cc(F)cc(N4CCOCC4)c3)c3ccccc23)n1`: 95 to 97 °C. On to `Cc1cc(S(N)(=O)=O)n(C)n1`, for which the melting point was in the range of 63 to 66 °C. `Clc1ccc(Cn2cc(CN3CCC(c4ccccc4)(c4ccccc4)CC3)nn2)cc1` yielded a melting point of 148 °C. Next, `COc1nc(C)cnc1NS(=O)(=O)c1cccnc1-c1ccc(OCCO)cc1`: 180 to 182 °C. With `NC(=O)c1cccc(-c2c(F)ccc3cc(Cc4cccc(C(F)(F)F)c4)sc23)c1`, the melting point is 166 to 167 °C.

The compound `N#CSc1cnn(-c2c(Cl)cc(C(F)(F)F)cc2Cl)c1N` came in with a melting point of 137 °C. For `Cc1nc(-c2ccc(C(F)(F)F)cc2)sc1CSc1ccc2c(c1)CC(C(=O)O)CO2` (centres undefined), the melting point lay in the range of 139 to 140 °C.

`C=C1C(=O)NC(=O)N1c1cccc(Cl)c1Cl` came in with a melting point of 201 to 203 °C.

On to `Cc1c(Cc2ccccc2)c(=O)oc2cc(OCc3nnn[nH]3)cc(OCc3nnn[nH]3)c12`, for which the melting point lay within 229 to 233 °C. Next, `CCOC(=O)c1ccc(-c2nc(CCl)c(C)o2)s1`: 101 to 102 °C; `COc1ccc(C(=O)n2c(C)c(Cc3cc(=O)n(-c4cccc(C(F)(F)F)c4)[nH]3)c3cc(OC)ccc32)cc1`: 91 to 94 °C; `CC(=O)OCC(C)C1=CCC2C3CC=C4CC(OC(C)=O)CC(OC(C)=O)C4(C)C3CCC12C` (centres undefined): 116 to 118 °C. Next, `CS(=O)(=O)c1ccc(C2=C(c3cccc(F)c3)C(=O)OC23CC3)cc1`: 130 to 131 °C. Next, `O=C1Nc2cccnc2Nc2ccccc21`: 278 to 280 °C; `CC[C@@H](C)[C@@H]1NC(=O)OC1(c1ccccc1)c1ccccc1`: 221 to 223 °C. `O=C1c2ccccc2C(=O)N1OCc1cccc(C(F)(F)F)c1`: the melting point was 106 to 108 °C. Compound `CC12C=CC(=O)C=C1CCC1C2C(O)CC2(C)C1CCC2(O)C(O)C(=O)O` (centres undefined) gave a melting point of 213 to 214 °C. `COc1cccc(-c2nc3ccc(OC(F)(F)F)cc3[nH]2)c1` yielded a melting point of 192 to 194 °C.

`COc1cc2[nH]c(=O)c(-c3csc(-c4ccncc4)n3)c(N)c2cc1OC` came in with a melting point of over 250 °C. In the case of `CSc1ccc([N+](=O)[O-])cn1`, the melting point lay in the range of 111 to 112 °C. The same measure for `COc1ccc2c(c1)c(Cc1cc(=O)n(C3CCCCC3)[nH]1)c(C)n2C(=O)c1ccc(Cl)c(Cl)c1`: 104 to 107 °C; for `CCCCCCCCNC(=O)C(C)=Cc1cccc(N2CC(C(=O)O)CC2=O)c1` (centres undefined): 120 to 121 °C. Next, `CCCCc1nc2cc3ccccc3cc2[nH]1`: 190 °C; `CSc1ncc2n1-c1ccc(Cl)cc1C(c1ccccc1F)=NC2`: 180 to 181 °C. For `CN1CCN(C2CC3(C)C(CCC4C3CCC3(C)C(O)C(N5CCCCC5)CC43)CC2O)CC1` (centres undefined), the melting point lay in the range of 230 to 234 °C.

`O=c1c2ccccc2nc(-c2cc(-c3ccccc3)c(N3CCOCC3)s2)n1-c1ccccc1Cl`: the melting point lay within 160 to 161 °C. Regarding `COc1ccc(Nc2cc(Cl)nc(SC)n2)cc1`, the melting point was 128 to 131 °C. `COc1cc2c(=O)n(Cc3ccc([N+](=O)[O-])cc3)c3cc(OC)c(OC)cc3c2cc1OC` gave a melting point of 199 to 200 °C. The same measure for `COc1cc(C)cc(OC)c1-c1ccccc1C(=O)O`: 187 °C. Next, `O=C(O)c1sc2ccc(Br)cc2c1-c1ccccc1`: 265 to 266 °C.

As to `COc1ccc(CC(C)(C)CO)cc1OC`, the melting point lay in the range of 48.5 to 50 °C. Next, `COc1ccc(CCN(C)CCC2CN(C)C(=S)c3cccnc3O2)cc1` (centres undefined): 75 to 78 °C; `CCOC(=O)c1c(CN(CC)CC)nc2sc3ccncc3c2c1-c1ccc(OC)c(OC)c1`: 141 to 142 °C.

In turn, `c1ccc2nc(COc3cccc4cccnc34)ccc2c1` displayed a melting point of 95 to 96 °C. Consider `COc1cc2c(cc1OC)CN(CCc1ccc(-c3ccccc3)cc1)CC2`, for which the melting point was 162 to 164 °C. The same measure for `CCOC(=O)c1oc2ccc(Br)c(OC(C)C)c2c1C`: 48 to 50 °C; for `N#Cc1nn(-c2c(Cl)cc(C(F)(F)F)cc2Cl)c(N)c1C(=O)CBr`: 190 to 192 °C; for `O=C(O)/C=C/c1cccc(-c2nc(=O)c3ccccc3s2)n1`: 116 °C. Compound `O=C(O)c1ccc2c(c1)C(=O)C(c1nc3ccccc3cc1O)C2=O` (centres undefined) yielded a melting point of over 350 °C.

Turning to `O=C1CCSc2c(O)cccc21`, the melting point lay in the range of 225 to 232 °C.

On to `CCCCCC(C)N(CCCC)c1ccc(C2=C(C#N)C(=C(C#N)C#N)NC2=O)cc1` (centres undefined), for which the melting point stood at 180 °C. `COc1cccc(C=Cc2nc3c(s2)N(S(C)(=O)=O)CCC3)c1OC` had a melting point of 134 to 136 °C.

Turning to `NNc1nncc(-c2ccc(F)cc2)n1`, the melting point fell in the range of 228 to 231 °C.

`CCc1cn2ccccc2c1S(=O)(=O)c1ccc(O)cc1` had a melting point of 204 °C. In the case of `COc1ccc(-c2cncc(-c3cn(C)c(=O)n3-c3ccc(C(C)(C)C#N)cc3)c2)cc1`, the melting point was 200 °C.

In turn, `CNS(=O)(=O)c1ccccc1Nc1nc(Nc2ccc3c(c2)CCCC(=O)N3C)ncc1Cl` returned a melting point of 175 to 177 °C. `Cc1cc(NC(=O)c2cc(F)cc(N(C3CN(C(c4ccc(Cl)cc4)c4ccc(Cl)cc4)C3)S(C)(=O)=O)c2)no1`: the melting point was 222 to 224 °C. In the case of `Cc1cc(C#N)cc(C(=O)Nc2ccnc(F)c2)n1`, the melting point turned out to be 246 °C. The same measure for `CNS(=O)(=O)Cc1ccc(NN=CCCC#N)cc1`: 124 to 125 °C; for `CCOC(=O)c1c(CN(CC)CC)nc2sc3c(c2c1-c1ccc(OC)c(OC)c1)CCN(C(=S)Nc1ccccc1)C3`: 104 to 106 °C.

`Cn1nc(Br)c([N+](=O)[O-])c1NC(C)(C)C` had a melting point of 75 to 77 °C.

Compound `Cc1c(CC(=O)O)oc2ccc(-c3ccccc3)cc12` had a melting point of 173 to 174 °C.
